Assay results from publication PMC7486443, “Generation of Phenothiazine with Potent Anti-TLK1 Activity for Prostate Cancer Therapy” (iScience, 2020).

What was measured:
Assay in all cases: biochemical
Set-up in all cases: DiscoverX KINOMEscan scanMAX competition binding panel, single concentration, percent of control; remaining binding: dose or concentration left out as unconfirmed
Conditions in all cases: KINOMEscan binding, percent of control; read-out: Table S4_SCANMAX REPORT - related to Fig. 1 / Percent Control
[1] = molecular target: INSRR (Homo sapiens, UniProt P14616)
[2] = molecular target: SRMS (Homo sapiens, UniProt Q9H3Y6)
Sequence of SRMS (Q9H3Y6 whole entry): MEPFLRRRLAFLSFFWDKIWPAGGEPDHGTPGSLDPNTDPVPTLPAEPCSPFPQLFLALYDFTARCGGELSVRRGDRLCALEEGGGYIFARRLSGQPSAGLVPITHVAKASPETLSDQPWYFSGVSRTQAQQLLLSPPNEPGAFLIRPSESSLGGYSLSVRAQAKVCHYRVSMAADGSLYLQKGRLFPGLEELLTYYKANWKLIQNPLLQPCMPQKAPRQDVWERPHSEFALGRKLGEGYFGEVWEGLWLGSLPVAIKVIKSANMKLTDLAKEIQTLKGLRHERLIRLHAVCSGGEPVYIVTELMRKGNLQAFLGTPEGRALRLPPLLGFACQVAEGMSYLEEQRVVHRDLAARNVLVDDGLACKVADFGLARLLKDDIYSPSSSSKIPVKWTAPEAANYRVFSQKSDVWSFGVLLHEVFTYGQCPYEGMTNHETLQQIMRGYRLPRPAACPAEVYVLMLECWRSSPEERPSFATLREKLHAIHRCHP

[3] = molecular target: T1, SIK (Homo sapiens, UniProt P57059)
T1 construct: gene SIK1

[4] = molecular target: T2, JNK3 (Homo sapiens, UniProt P53779)
T2 construct: gene MAPK10
T2 sequence (P53779 whole entry): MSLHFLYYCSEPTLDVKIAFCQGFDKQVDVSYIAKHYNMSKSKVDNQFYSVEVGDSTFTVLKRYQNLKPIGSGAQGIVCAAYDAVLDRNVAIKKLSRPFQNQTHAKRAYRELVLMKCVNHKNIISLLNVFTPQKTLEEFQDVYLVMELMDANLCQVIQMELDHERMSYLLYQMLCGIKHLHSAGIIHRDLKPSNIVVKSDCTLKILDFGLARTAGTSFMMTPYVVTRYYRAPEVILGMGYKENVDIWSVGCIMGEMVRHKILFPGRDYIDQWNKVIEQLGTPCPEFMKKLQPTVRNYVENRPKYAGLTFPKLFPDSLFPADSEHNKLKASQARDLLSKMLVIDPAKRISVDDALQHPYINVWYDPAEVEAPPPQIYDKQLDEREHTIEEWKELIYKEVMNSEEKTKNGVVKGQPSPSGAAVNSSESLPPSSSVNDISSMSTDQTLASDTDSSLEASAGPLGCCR

[5] = molecular target: PAK4 (Homo sapiens, UniProt O96013)
[6] = molecular target: T3, RPS6KA5(Kin.Dom.1-N-terminal) (Homo sapiens, UniProt O75582)
T3 construct: Kin.Dom.1-N-terminal

[7] = molecular target: FLT3 (Homo sapiens, UniProt P36888)
[8] = molecular target: EPHA2 (Homo sapiens, UniProt P29317)
Sequence of EPHA2 (P29317 whole entry): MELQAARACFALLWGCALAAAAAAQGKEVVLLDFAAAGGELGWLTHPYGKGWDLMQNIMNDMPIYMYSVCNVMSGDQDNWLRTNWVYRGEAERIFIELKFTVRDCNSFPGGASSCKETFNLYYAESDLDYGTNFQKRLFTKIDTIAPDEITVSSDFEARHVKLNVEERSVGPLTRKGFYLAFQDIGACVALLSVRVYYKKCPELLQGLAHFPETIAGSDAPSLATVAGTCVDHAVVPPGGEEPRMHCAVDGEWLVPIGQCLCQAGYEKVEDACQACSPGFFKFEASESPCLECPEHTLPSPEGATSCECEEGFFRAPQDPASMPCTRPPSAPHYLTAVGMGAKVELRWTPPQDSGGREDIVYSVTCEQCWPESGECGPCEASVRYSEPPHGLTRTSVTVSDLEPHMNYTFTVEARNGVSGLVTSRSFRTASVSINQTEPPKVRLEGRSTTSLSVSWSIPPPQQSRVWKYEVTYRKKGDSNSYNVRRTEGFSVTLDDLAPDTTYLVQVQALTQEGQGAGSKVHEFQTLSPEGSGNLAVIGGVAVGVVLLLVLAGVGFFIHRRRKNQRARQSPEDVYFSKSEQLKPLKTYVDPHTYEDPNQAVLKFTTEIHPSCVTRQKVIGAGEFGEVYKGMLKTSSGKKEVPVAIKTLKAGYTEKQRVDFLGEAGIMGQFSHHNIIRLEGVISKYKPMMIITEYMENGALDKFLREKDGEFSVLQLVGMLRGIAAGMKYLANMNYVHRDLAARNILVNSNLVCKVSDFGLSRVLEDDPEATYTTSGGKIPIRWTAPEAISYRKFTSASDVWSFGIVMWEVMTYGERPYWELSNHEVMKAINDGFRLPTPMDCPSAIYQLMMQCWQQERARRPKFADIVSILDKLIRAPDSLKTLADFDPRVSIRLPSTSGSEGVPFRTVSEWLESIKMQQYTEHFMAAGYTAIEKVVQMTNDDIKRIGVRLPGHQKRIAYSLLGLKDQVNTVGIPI

[9] = molecular target: RET(V804L) (Homo sapiens, UniProt P07949, V804L)
[10] = molecular target: T4, RSK4(Kin.Dom.2-C-terminal) (Homo sapiens, UniProt Q9UK32)
T4 construct: gene RPS6KA6; Kin.Dom.2-C-terminal

[11] = molecular target: LATS1 (Homo sapiens, UniProt O95835)
Sequence of LATS1 (O95835 whole entry): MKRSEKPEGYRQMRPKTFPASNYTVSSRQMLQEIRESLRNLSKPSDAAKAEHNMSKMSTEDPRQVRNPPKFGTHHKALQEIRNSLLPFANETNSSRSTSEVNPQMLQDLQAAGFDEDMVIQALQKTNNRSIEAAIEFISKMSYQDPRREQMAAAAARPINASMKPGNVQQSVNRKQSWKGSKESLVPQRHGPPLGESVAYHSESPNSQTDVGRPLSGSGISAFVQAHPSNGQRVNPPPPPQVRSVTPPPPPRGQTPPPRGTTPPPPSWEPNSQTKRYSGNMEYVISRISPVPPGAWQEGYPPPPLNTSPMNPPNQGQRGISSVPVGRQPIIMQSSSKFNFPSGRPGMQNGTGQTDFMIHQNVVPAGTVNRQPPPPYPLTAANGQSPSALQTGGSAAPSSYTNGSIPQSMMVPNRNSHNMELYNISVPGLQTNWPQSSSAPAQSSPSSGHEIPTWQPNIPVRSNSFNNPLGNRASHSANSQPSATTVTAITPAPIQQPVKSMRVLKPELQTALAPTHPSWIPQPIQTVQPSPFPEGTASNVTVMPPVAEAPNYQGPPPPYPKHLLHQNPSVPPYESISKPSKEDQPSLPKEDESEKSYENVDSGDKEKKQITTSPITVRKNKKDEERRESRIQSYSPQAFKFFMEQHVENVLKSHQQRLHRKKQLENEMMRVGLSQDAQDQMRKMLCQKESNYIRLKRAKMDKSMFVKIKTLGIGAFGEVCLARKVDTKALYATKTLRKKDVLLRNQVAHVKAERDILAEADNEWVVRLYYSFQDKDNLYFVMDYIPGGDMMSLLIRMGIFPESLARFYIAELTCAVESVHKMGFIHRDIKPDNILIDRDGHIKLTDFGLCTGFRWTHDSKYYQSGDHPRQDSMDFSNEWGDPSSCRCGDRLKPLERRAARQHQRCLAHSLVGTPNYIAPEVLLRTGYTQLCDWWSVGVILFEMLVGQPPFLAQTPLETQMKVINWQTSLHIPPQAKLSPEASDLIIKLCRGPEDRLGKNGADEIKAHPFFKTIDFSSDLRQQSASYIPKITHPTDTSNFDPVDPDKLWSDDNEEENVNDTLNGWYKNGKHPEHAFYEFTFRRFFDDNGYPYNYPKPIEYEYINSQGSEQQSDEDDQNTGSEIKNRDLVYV

[12] = molecular target: T5, ERK4 (Homo sapiens, UniProt P31152)
T5 construct: gene MAPK4
T5 sequence (P31152 whole entry): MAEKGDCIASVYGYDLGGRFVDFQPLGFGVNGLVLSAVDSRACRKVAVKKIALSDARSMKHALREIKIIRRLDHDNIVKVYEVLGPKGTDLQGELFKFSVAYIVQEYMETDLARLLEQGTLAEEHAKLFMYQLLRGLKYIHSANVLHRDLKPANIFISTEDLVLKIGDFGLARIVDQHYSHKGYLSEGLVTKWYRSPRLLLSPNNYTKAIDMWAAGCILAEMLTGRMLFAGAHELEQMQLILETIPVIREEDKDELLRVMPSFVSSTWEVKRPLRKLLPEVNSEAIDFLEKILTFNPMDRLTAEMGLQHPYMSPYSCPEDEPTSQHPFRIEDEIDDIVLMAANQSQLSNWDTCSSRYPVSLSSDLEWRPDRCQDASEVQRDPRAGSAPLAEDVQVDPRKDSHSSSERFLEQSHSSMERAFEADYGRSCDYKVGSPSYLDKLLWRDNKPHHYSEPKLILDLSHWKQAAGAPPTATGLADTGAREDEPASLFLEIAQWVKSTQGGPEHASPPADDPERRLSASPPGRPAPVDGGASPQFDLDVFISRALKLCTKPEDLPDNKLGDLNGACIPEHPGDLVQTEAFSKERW

[13] = molecular target: MERTK (Homo sapiens, UniProt Q12866)
[14] = molecular target: CHEK2 (Homo sapiens, UniProt O96017)
Sequence of CHEK2 (O96017 whole entry): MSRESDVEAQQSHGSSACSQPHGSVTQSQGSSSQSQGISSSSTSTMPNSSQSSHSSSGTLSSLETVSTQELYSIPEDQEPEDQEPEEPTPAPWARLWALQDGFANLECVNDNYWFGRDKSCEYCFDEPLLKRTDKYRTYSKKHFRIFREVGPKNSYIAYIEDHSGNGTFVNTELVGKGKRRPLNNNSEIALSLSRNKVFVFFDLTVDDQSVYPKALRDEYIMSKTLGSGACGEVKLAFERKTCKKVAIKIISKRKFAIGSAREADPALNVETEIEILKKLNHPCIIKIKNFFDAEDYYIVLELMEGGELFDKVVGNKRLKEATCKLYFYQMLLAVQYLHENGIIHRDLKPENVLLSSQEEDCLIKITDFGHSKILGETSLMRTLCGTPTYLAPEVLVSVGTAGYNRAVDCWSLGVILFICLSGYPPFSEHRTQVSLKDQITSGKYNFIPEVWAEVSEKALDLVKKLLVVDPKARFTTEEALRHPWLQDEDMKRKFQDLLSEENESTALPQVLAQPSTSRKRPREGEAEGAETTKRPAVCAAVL

[15] = molecular target: T6, RPS6KA4(Kin.Dom.1-N-terminal) (Homo sapiens, UniProt O75676)
T6 construct: Kin.Dom.1-N-terminal

[16] = molecular target: FLT3(ITD) (Homo sapiens, UniProt P36888, ITD)
[17] = molecular target: DAPK3 (Homo sapiens, UniProt O43293)
Sequence of DAPK3 (O43293 whole entry): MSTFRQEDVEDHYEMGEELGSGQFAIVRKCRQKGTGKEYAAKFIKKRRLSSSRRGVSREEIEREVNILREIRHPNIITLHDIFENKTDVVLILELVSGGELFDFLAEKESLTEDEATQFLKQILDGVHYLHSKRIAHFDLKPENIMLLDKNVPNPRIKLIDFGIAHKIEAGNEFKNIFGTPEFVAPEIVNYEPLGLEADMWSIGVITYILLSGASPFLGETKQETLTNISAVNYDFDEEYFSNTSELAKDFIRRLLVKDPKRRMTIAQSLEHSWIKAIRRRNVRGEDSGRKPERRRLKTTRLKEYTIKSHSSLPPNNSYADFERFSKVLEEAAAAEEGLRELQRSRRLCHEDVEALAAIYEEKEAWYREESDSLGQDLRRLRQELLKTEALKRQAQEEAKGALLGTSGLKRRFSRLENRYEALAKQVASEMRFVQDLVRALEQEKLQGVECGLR

[18] = molecular target: ROCK1 (Homo sapiens, UniProt Q13464)

c1ccc2c(c1)Sc1ccccc1N2CCN1CCOCC1 [J54]
remaining binding [1]: 85% | remaining binding [2]: 100% | remaining binding [3]: 91% | remaining binding [4]: 93% | remaining binding [5]: 99% | remaining binding [6]: 100% | remaining binding [7]: 100% | remaining binding [8]: 100% | remaining binding [9]: 88% | remaining binding [10]: 99% | remaining binding [11]: 81% | remaining binding [12]: 100% | remaining binding [13]: 100% | remaining binding [14]: 100% | remaining binding [15]: 75% | remaining binding [16]: 68% | remaining binding [17]: 96% | remaining binding [18]: 100%
